Reference: patent US20240238425A1, “HSD17B13 Inhibitors and/or Degraders” (Pfizer Inc., priority 2022, published 2024)
Counter-ions that a name gives are not always drawn.

Tested on: HiBiT-HSD17β13 fusion protein (N-terminal HiBiT-tagged HSD17β13 isoform D) in Huh7 HiBiT-HSD17β13 OE cells
Assay: Whole-cell Huh7-HSD17B13 HiBiT assay (degrader potency and maximal efficacy, luminescence readout)
Assay type: cell-based, human
Conditions: 24 hour incubation, geometric mean, * = geometric mean for all forms tested (parent and salt forms); for DC50: read-out: Huh7_HIBIT-HSD17β13_DC50 GMean DC50; for Huh7_HIBIT-HSD17β13_DC50 GMean Asymptote Maximum: max. concentration 1 μM
Method in brief: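 Luminescence from lytic HiBiT detection tracked residual HiBiT-HSD17β13 (isoform D, N-terminal tag) in a stable Huh7 overexpressing clone after 24 h compound treatment at 37° C, 11 concentrations up to 1 μM final. Percent effect used DMSO (zero) and parental Huh7 (high) wells; four-parameter fit gave 50% degradation; viability checked by CellTiter-Glo.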

Row | SMILES | DC50 | Huh7_HIBIT-HSD17β13_DC50 GMean Asymptote Maximum
1 | Cc1ccc(C(=O)N2CCN(CC3CCN(c4ncc(-c5ccc6cn([C@H]7CC[C@H](CNC(=O)c8cc(F)c(O)c(F)c8F)CC7)nc6c5)cn4)CC3)CC2)cc1N1CCC(=O)NC1=O [Example 42, N-{[(1r,4r)-4-(6-{2-[4-({4-[3-(2,4-dioxo-1,3-diazinan-1-yl)-4-methylbenzoyl]piperazin-1-yl}methyl)piperidin-1-yl]pyrimidin-5-yl}-2H-indazol-2-yl)cyclohexyl]methyl}-2,3,5-trifluoro-4-hydroxybenzamide, trifluoroacetate salt] | 3.3 nM | 83%
2 | Cc1ccc(C(=O)N2CCC(CN3CCN(c4ncc(-c5ccc6cn([C@H]7CC[C@H](CNC(=O)c8cc(F)c(O)c(F)c8F)CC7)nc6c5)cn4)CC3)CC2)cc1N1CCC(=O)NC1=O [Example 45, N-{[(1r,4r)-4-(6-{2-[4-({1-[3-(2,4-dioxo-1,3-diazinan-1-yl)-4-methylbenzoyl]piperidin-4-yl}methyl)piperazin-1-yl]pyrimidin-5-yl}-2H-indazol-2-yl)cyclohexyl]methyl}-2,3,5-trifluoro-4-hydroxybenzamide, trifluoroacetate salt] | 3.1 nM | 76%
3 | O=C1CCN(c2cnc3cc(CCCN4CCN(c5ccc6cn([C@H]7CC[C@H](CNC(=O)c8cc(F)c(O)c(F)c8F)CC7)nc6c5)CC4)ccn23)C(=O)N1 [Example 47, N-({(1r,4r)-4-[6-(4-{3-[3-(2,4-dioxo-1,3-diazinan-1-yl)imidazo[1,2-a]pyridin-7-yl]propyl}piperazin-1-yl)-2H-indazol-2-yl]cyclohexyl}methyl)-2,3,5-trifluoro-4-hydroxybenzamide, trifluoroacetate salt] | 4.3 nM | 78%
4 | Cc1ccc(C(=O)N2CCC(CN3CCN(c4ccc(-c5ccc6cn([C@H]7CC[C@H](CNC(=O)c8cc(F)c(O)c(F)c8F)CC7)nc6c5)nn4)CC3)CC2)cc1N1CCC(=O)NC1=O [Example 49, N-{[(1r,4r)-4-(6-{6-[4-({1-[3-(2,4-dioxo-1,3-diazinan-1-yl)-4-methylbenzoyl]piperidin-4-yl}methyl)piperazin-1-yl]pyridazin-3-yl}-2H-indazol-2-yl)cyclohexyl]methyl}-2,3,5-trifluoro-4-hydroxybenzamide, trifluoroacetate salt] | 3.7 nM | 82%
5 | Cc1ccc(C(=O)N2CCC(OC3CCN(c4ncc(-c5ccc6cn([C@H]7CC[C@H](CNC(=O)c8cc(F)c(O)c(F)c8F)CC7)nc6c5)cn4)CC3)CC2)cc1N1CCC(=O)NC1=O [Example 57, N-{[(1r,4r)-4-(6-{2-[4-({1-[3-(2,4-dioxo-1,3-diazinan-1-yl)-4-methylbenzoyl]piperidin-4-yl}oxy)piperidin-1-yl]pyrimidin-5-yl}-2H-indazol-2-yl)cyclohexyl]methyl}-2,3,5-trifluoro-4-hydroxybenzamide, trifluoroacetate salt] | 4.8 nM | 76%
6 | Cc1ccc(C(=O)N2CCC3(CCN(c4ncc(-c5ccc6cn([C@H]7CC[C@H](CNC(=O)c8cc(F)c(O)c(F)c8F)CC7)nc6c5)cn4)CC3)C2)cc1N1CCC(=O)NC1=O [Example 58, N-({(1r,4r)-4-[6-(2-{2-[3-(2,4-dioxo-1,3-diazinan-1-yl)-4-methylbenzoyl]-2,8-diazaspiro[4.5]decan-8-yl}pyrimidin-5-yl)-2H-indazol-2-yl]cyclohexyl}methyl)-2,3,5-trifluoro-4-hydroxybenzamide, trifluoroacetate salt] | 1.5 nM | 73%
7 | O=C1CCN(c2cnn3cc(CCCN4CCN(c5nccc(-c6nc([C@]78CC[C@](CNC(=O)c9cc(F)c(O)c(F)c9F)(CC7)CC8)no6)n5)CC4)ccc23)C(=O)N1 [Example 61, N-[(4-{5-[2-(4-{3-[3-(2,4-dioxo-1,3-diazinan-1-yl)pyrazolo[1,5-a]pyridin-6-yl]propyl}piperazin-1-yl)pyrimidin-4-yl]-1,2,4-oxadiazol-3-yl}bicyclo[2.2.2]octan-1-yl)methyl]-2,3,5-trifluoro-4-hydroxybenzamide, trifluoroacetate salt] | 2.6 nM | 72%
8 | Cc1ccc(C(=O)N2CCC3(CC2)CCN(c2ncc(-c4ccc5cn([C@H]6CC[C@H](CNC(=O)c7cc(F)c(O)c(F)c7F)CC6)nc5c4)cn2)C3)cc1N1CCC(=O)NC1=O [Example 63, N-({(1r,4r)-4-[6-(2-{8-[3-(2,4-dioxo-1,3-diazinan-1-yl)-4-methylbenzoyl]-2,8-diazaspiro[4.5]decan-2-yl}pyrimidin-5-yl)-2H-indazol-2-yl]cyclohexyl}methyl)-2,3,5-trifluoro-4-hydroxybenzamide] | 2.6 nM | 80%
9 | Cc1ccc(C(=O)N2CCC3(CC2)C[C@@H](N2CCN(c4ncc(-c5ccc6cn([C@H]7CC[C@H](CNC(=O)c8cc(F)c(O)c(F)c8F)CC7)nc6c5)cn4)CC2)CO3)cc1N1CCC(=O)NC1=O [Example 68, N-{[(1r,4r)-4-{6-[2-(4-{(3R)-8-[3-(2,4-dioxo-1,3-diazinan-1-yl)-4-methylbenzoyl]-1-oxa-8-azaspiro[4.5]decan-3-yl}piperazin-1-yl)pyrimidin-5-yl]-2H-indazol-2-yl}cyclohexyl]methyl}-2,3,5-trifluoro-4-hydroxybenzamide, trifluoroacetate salt] | 1.7 nM | 79%
10 | Cc1ccc(C(=O)N2CCC3(CC2)CC(N2CCN(c4cnc(-c5ccc6cn([C@H]7CC[C@H](CNC(=O)c8cc(F)c(O)c(F)c8F)CC7)nc6c5)cn4)CC2)CO3)cc1N1CCC(=O)NC1=O (some centres unmarked) [Example 71, N-{[(1r,4r)-4-{6-[5-(4-{8-[3-(2,4-dioxo-1,3-diazinan-1-yl)-4-methylbenzoyl]-1-oxa-8-azaspiro[4.5]decan-3-yl}piperazin-1-yl)pyrazin-2-yl]-2H-indazol-2-yl}cyclohexyl]methyl}-2,3,5-trifluoro-4-hydroxybenzamide, trifluoroacetate salt] | 2.4 nM | 76%

Second part, led by results:

Row | DC50 | SMILES | Huh7_HIBIT-HSD17β13_DC50 GMean Asymptote Maximum
11 | 1.5 nM | O=C1CCN(c2cnn3cc(CCCN4CCN(c5ccc6cn([C@H]7CC[C@H](CNC(=O)c8cc(F)c(O)c(F)c8F)CC7)nc6c5)CC4)ccc23)C(=O)N1 [Example 48, N-({(1r,4r)-4-[6-(4-{3-[3-(2,4-dioxo-1,3-diazinan-1-yl)pyrazolo[1,5-a]pyridin-6-yl]propyl}piperazin-1-yl)-2H-indazol-2-yl]cyclohexyl}methyl)-2,3,5-trifluoro-4-hydroxybenzamide, trifluoroacetate salt] | 74%
12 | 0.91 nM | O=C1CCN(c2cnc3cc(CN4CCN(c5ncc(-c6ccc7cn([C@H]8CC[C@H](CNC(=O)c9cc(F)c(O)c(F)c9F)CC8)nc7c6)cn5)CC4)ccn23)C(=O)N1 [Example 50, N-{[(1r,4r)-4-{6-[2-(4-{[3-(2,4-dioxo-1,3-diazinan-1-yl)imidazo[1,2-a]pyridin-7-yl]methyl}piperazin-1-yl)pyrimidin-5-yl]-2H-indazol-2-yl}cyclohexyl]methyl}-2,3,5-trifluoro-4-hydroxybenzamide, trifluoroacetate salt] | 85%
13 | 0.78 nM | O=C1CCN(c2cnn3cc(CCCN4CCN(c5ncc(-c6ccc7cn([C@H]8CC[C@H](CNC(=O)c9cc(F)c(O)c(F)c9F)CC8)nc7c6)cn5)CC4)ccc23)C(=O)N1 [Example 53, N-{[(1r,4r)-4-{6-[2-(4-{3-[3-(2,4-dioxo-1,3-diazinan-1-yl)pyrazolo[1,5-a]pyridin-6-yl]propyl}piperazin-1-yl)pyrimidin-5-yl]-2H-indazol-2-yl}cyclohexyl]methyl}-2,3,5-trifluoro-4-hydroxybenzamide, trifluoroacetate salt] | 77%
14 | 0.64 nM | O=C1CCN(c2cnn3cc(CCN4CCN(c5ncc(-c6ccc7cn([C@H]8CC[C@H](CNC(=O)c9cc(F)c(O)c(F)c9F)CC8)nc7c6)cn5)CC4)ccc23)C(=O)N1 [Example 54, N-{[(1r,4r)-4-{6-[2-(4-{2-[3-(2,4-dioxo-1,3-diazinan-1-yl)pyrazolo[1,5-a]pyridin-6-yl]ethyl}piperazin-1-yl)pyrimidin-5-yl]-2H-indazol-2-yl}cyclohexyl]methyl}-2,3,5-trifluoro-4-hydroxybenzamide, trifluoroacetate salt] | 83%
15 | 1 nM | Cc1ccc(C(=O)N2CCN(C3COC4(CCN(c5ncc(-c6ccc7cn([C@H]8CC[C@H](CNC(=O)c9cc(F)c(O)c(F)c9F)CC8)nc7c6)cn5)CC4)C3)CC2)cc1N1CCC(=O)NC1=O (some centres unmarked) [Example 59, N-{[(1r,4r)-4-{6-[2-(3-{4-[3-(2,4-dioxo-1,3-diazinan-1-yl)-4-methylbenzoyl]piperazin-1-yl}-1-oxa-8-azaspiro[4.5]decan-8-yl)pyrimidin-5-yl]-2H-indazol-2-yl}cyclohexyl]methyl}-2,3,5-trifluoro-4-hydroxybenzamide, trifluoroacetate salt] | 80%
16 | 1.1 nM | O=C1CCN(c2cnn3cc(CN4CCN(c5cnc(-c6ccc7cn([C@H]8CC[C@H](CNC(=O)c9cc(F)c(O)c(F)c9F)CC8)nc7c6)cn5)CC4)ccc23)C(=O)N1 [Example 70, N-{[(1r,4r)-4-{6-[5-(4-{[3-(2,4-dioxo-1,3-diazinan-1-yl)pyrazolo[1,5-a]pyridin-6-yl]methyl}piperazin-1-yl)pyrazin-2-yl]-2H-indazol-2-yl}cyclohexyl]methyl}-2,3,5-trifluoro-4-hydroxybenzamide, trifluoroacetate salt] | 85%
